Test results from US10736891B2, “Composition and method for treating chagas disease” (priority 2016, dated 2020).

How the values were obtained:
[1] = Blood chemistries and liver biopsies under amiodarone/itraconazole, monkeys
[2] = Blood chemistries and liver biopsies under amiodarone/itraconazole, dogs
[3] = cited from earlier work
in vivo = settings: human
[4] = increase from 5 mg/kg to 10 mg/kg once daily; cited from earlier work
[5] = in vivo
Description: Accordingly, prior to additional testing, a dosage of Itraconazole and Amiodarone was prepared in accordance with the above example, but with nanomilling of the Itraconazole before formulating into pharmaceutical compositions and administration to patients. In this example, a suspension of itraconazole was prepared and then subject to milling using a media mill such as disclosed in Kumar et al., J. Pharm. Sci. 104:3018-3028 (2015), wherein Itraconazole (1%, w/v) was suspended in a desired concentration of an aqueous stabilizer solution, and the prepared suspension was stirred for 30 minutes or more for complete wetting of the drug by the stabilizer solution. The suspension (e.g., 150 mL) was then wet milled or wet grinded using a conventional wet milling or grinding device, namely one manufactured by Netzsch of Exton, Pa. Using this equipment, the mill is operated at a suitable speed, e.g., 2500 rpm in a continuous mode for a time suitable to reduce particle size to a range of 1 and 400 nm, e.g., 75 minutes. The temperature of the sample was maintained at below 25° C. during the process, and two cooling bath recirculators were used, including one attached to the milling device and the other attached to suspension recirculation chambers. […]

Compound	arrythmias [1]	hepatic effects (multiple blood chemistries) [1]	arrythmias [2]	hepatic effects (multiple blood chemistries) [2]	Itraconazole plasma level when given with food compared with without food [3]	Cmax (in vivo; 5 mg/kg)	increase in plasma Itraconazole level compared with the Cmax of a previous study (Paniz-Mondolfi et al. 2009) (in vivo; 10 mg/kg)	Cmax (in vivo; po, 10 mg/kg)	Itraconazole Cmax increase [4]	increase of bioavailability of itraconazole [5]
CCCCc1oc2ccccc2c1C(=O)c1cc(I)c(OCCN(CC)CC)c(I)c1 [Amiodarone]	0	0	0	0						
CCC(C)n1ncn(-c2ccc(N3CCN(c4ccc(OCC5COC(Cn6cncn6)(c6ccc(Cl)cc6Cl)O5)cc4)CC3)cc2)c1=O (stereo not shown) [Itraconazole]					higher	3550 ng/mL	5-6 fold	13500 ng/mL	5-6 fold	2000%
